Measurements taken from US6632793B1, “Immunological activity for a peptide of the limulus anti-LPS factor” (Centro de Ingenieria Genetica y Biotecnologia, priority 1997, dated 2003).
Where a SMILES comes first, the peptide text is derived from it.

How the values were obtained:
Type in all cases: cell-based
[1] = test system: Mengo virus on cell line Hep-2; assay: Antiviral effect: inhibition of the cytopathic effect of Mengo virus on cell line Hep-2; conditions: for Antiviral effect, 1 / Antiviral effect, 2 / Antiviral effect, 3 / Antiviral effect, Mean: 24 h pre-incubation; for Antiviral effect, 1: experiment 1; for Antiviral effect, 2: experiment 2; for Antiviral effect, 3: experiment 3; for Antiviral effect, Mean: mean of 3
Protocol: (§1) Then the cells were washed with saline solution and infected with […] of Mengo virus, provide by Institute of Molecular Biology, University of Zurich, which is multiplied in the cell line L929 murine fibroblasts. 18 h later degree of cell destruction was measured by fixation and staining, generally with crystal violet, for reading of cytophatic effect was used a photometer Ultramicroanalytical System (SUMA). A computer program in Pascal UCSD language for the microcomputer system was developed for all calculations and corrections (Ferrero et al., 1994, Biotecnologia Aplicada. Vol. 1:). In this case serial dilution's of human γ-IFN 70 000 IU/ml (MRI, Freeze-dried Reference Human Recombinant Gamma Interferon) was used as standard in order to define unit of antiviral activity. For this reason the antiviral protection shown by the peptide is related to International Units of γ-IFN (Ul/ml). As a negative control were used different peptides from proteins that bind endotoxin. LPS at 10 ng/ml was used as a positively control because is well known that it induced the production of IFNs (Manthey et al., 1994, J. Immunology. Vol. 153: 2653-2663). One unit of antiviral activity is define as the quantity of IFN able to produce an 50% inhibition of the viral replication.

[2] = test system: bovine enterovirus on cell line MDBK; assay: Antiviral effect: inhibition of the cytopathic effect of bovine enterovirus on cell line MDBK; conditions: 10 μM, 20 μM and 40 μM; FIG. 5
Protocol: Determination of the antiviral activity was estimate by means of the inhibition of the cytopathic effect produced by a virus on cell line MDBK, essentially as is described in the example 1. The cells used in this approach were MDBK a kidney normal bovine cells line [ATCC No. 6071], which are infected with […] of bovine enterovirus. Increasing quantities of LALF peptide were used in order to induced protection in the-cells: 10 μM, 20 μM and 40 μM. In this case serial dilution's of human α-IFN 70 000 IU/ml (MRI, Freeze-dried Reference Human Recombinant Alpha Interferon) was used as standard in order to define unit of antiviral activity. One unit of antiviral activity is defining as the quantity of IFN able to produce a 50% inhibition of the viral replication.
The cells were treated with increasing quantities of peptide during 18 hours. Afterwards, the cells were challenged with a bovine enterovirus. Antiviral activity is referred as U/ml α-IFN.

human mononuclear cells = assay: Antiviral effect on Hep-2 cells of supernatant from human mononuclear cells stimulated with peptide; conditions: for Antiviral effect of supernatant, 1: supernatant on Hep-2, experiment 1; for Antiviral effect of supernatant, 2: supernatant on Hep-2, experiment 2; for Antiviral effect of supernatant, 3: supernatant on Hep-2, experiment 3; for Antiviral effect of supernatant, Mean: supernatant on Hep-2, mean of 3
Protocol: as §1
Venous blood was obtained from healthy volunteers and Ficoll-Hypaque centrifugation, fractionated mononuclear cells. The mononuclear cells were washed and resuspended in endotoxin-free RPMI-1640 culture medium supplemented with 10% fetal calf serum. Concentration of 2×10^6 cells/ml were aliquoted into 24-well microtiter plates (Nunc, Denmark). The cells were then incubated with 14 and 28 μg/ml of different peptides: Limulus anti-LPS factor31-52 (LALF), Lipopolysaccharide Binding Protein86-99 (LBP) and 18 kDa Cationic Antimicrobial Protein108-128 (CAP-18), at 37° C. for 18 hours in 5% CO2. The cells were centrifuged at 3000 rpm for 5 min and then serial dilutions of supematants were assays for antiviral activity using the procedures described in the example 2.

[3] = test system: cytokine mRNA in human PBMCs; assay: Cytokine gene expression in human PBMCs by Ribonuclease Protection Assay (hck-1 probe set); conditions: 5 μM for 18 hours; FIG. 8
Protocol: The Ribonuclease Protection Assay (RPA) is a highly sensitive and specific method for the detection, quantification and characterization of RNA molecules (Gilman^32, M. In Current Protocols in Molecular Biology. J. Wiley and Sons, New York, p. 4.7.1-7.7.8. 1988 and Dent^33, A. L., Shaffer, A. L., Yu […]., 1997. Cytokine expression and germinal center formation by Bcl-2. […] Samples of total RNA from stimulated and nonstimulated human PBMCs were analyzed for distinct mRNA species by PharMingen's RiboQuantTM. Multi-Probe Ribonuclease Protection Assay System with the hck-1 probe template set (Cat. No. 45031P) which including mRNA species analyses for a different cytokine eg. (IL-5, IL-4, IL-10, IL-15, IL-9, IL-2, IL-13, IFN-γ). […] The identity and quantity of each mRNA species in the original RNA sample can then be determined based on the signal intensities given by the appropriately sized of protected probe fragment bands. Unprotected probe set and a probe for housekeeping gene transcripts are incorporating in order to identify and quantify the RNA molecules in the original samples. […] FIG 8: Samples of total RNA from stimulated human PBMCs with 5 μM of peptide for 18 hours were analyzed for distinct mRNA species by using […] […]

[4] = mononuclear cells stimulated with 14 μg/ml for 18 h
[5] = mononuclear cells stimulated with 28 μg/ml for 18 h

CC[C@H](C)[C@H](NC(=O)[C@H](CCCNC(=N)N)NC(=O)[C@H](Cc1ccc(O)cc1)NC(=O)[C@H](Cc1c[nH]cn1)NC(=O)[C@@H](N)CS)C(=O)N[C@@H](CCCCN)C(=O)N1CCC[C@H]1C(=O)N[C@H](C(=O)N[C@@H](Cc1ccccc1)C(=O)N[C@@H](CCCNC(=N)N)C(=O)N[C@@H](CCCNC(=N)N)C(=O)N[C@@H](CC(C)C)C(=O)N[C@@H](CCCCN)C(=O)N[C@@H](Cc1c[nH]c2ccccc12)C(=O)N[C@@H](CCCCN)C(=O)N[C@@H](Cc1ccc(O)cc1)C(=O)N[C@@H](CCCCN)C(=O)NCC(=O)N[C@@H](CCCCN)C(=O)N[C@@H](Cc1ccccc1)C(=O)N[C@@H](Cc1c[nH]c2ccccc12)C(=O)N[C@@H](CS)C(=O)O)[C@@H](C)O [LALF] (H-CHYRIKPTFRRLKWKYKGKFWC-OH)
Induction of an antiviral state in Hep-2 cells (in words) ([1]; 14 and 28 μg/ml): able to induce an antiviral state | Antiviral effect, 1 ([1]; Hep-2, 14 μg/ml): 35 IU/ml γ-IFN | Antiviral effect, 2 ([1]; Hep-2, 14 μg/ml): 31.7 IU/ml γ-IFN | Antiviral effect, 3 ([1]; Hep-2, 14 μg/ml): 22 IU/ml γ-IFN | Antiviral effect, Mean ([1]; Hep-2, 14 μg/ml): 29.5 IU/ml γ-IFN | Antiviral effect, 1 ([1]; Hep-2, 28 μg/ml): 28.7 IU/ml γ-IFN | Antiviral effect, 2 ([1]; Hep-2, 28 μg/ml): 27 IU/ml γ-IFN | Antiviral effect, 3 ([1]; Hep-2, 28 μg/ml): 31.4 IU/ml γ-IFN | Antiviral effect, Mean ([1]; Hep-2, 28 μg/ml): 28.3 IU/ml γ-IFN | Protection of cell line MDBK against bovine enterovirus (in words) [2]: able to induce protection in the cell line MDBK in a doses dependent manner | Release of protective mediator by human peripheral blood mononuclear cells (in words) (human mononuclear cells; 14 and 28 μg/ml, 18 h): induce them to release certain mediator capable of conferring protection to the Hep-2 cells against viral infections | Antiviral effect of supernatant, 1 (human mononuclear cells; [4]): 28 IU/ml γ-IFN | Antiviral effect of supernatant, 2 (human mononuclear cells; [4]): 27.6 IU/ml γ-IFN | Antiviral effect of supernatant, 3 (human mononuclear cells; [4]): 20.4 IU/ml γ-IFN | Antiviral effect of supernatant, Mean (human mononuclear cells; [4]): 25.3 IU/ml γ-IFN | Antiviral effect of supernatant, 1 (human mononuclear cells; [5]): 28.4 IU/ml γ-IFN | Antiviral effect of supernatant, 2 (human mononuclear cells; [5]): 28 IU/ml γ-IFN | Antiviral effect of supernatant, 3 (human mononuclear cells; [5]): 20 IU/ml γ-IFN | Antiviral effect of supernatant, Mean (human mononuclear cells; [5]): 25.4 IU/ml γ-IFN | Cytokine gene expression in human PBMCs (in words) [3]: able to preferentially induce IFN-γ, IL-2 and IL-13 gene expression
